In assay [1] the target is GST-tagged KRAS-G12V (2-169) (Homo sapiens, UniProt P01116, G12V). Description: Nucleotide exchange assay (NEA), SOS-mediated, HTRF, KRAS G12V. To be noted: Table 4; IC50 extracted at 90 min; 80 nM SOS. Format: biochemical. The essentials: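 GST-KRAS-G12V (2-169), 0.25 nM, pre-incubated 1 h at RT with compound, then SOS1cat (564-1049) 80 nM and GTP-DY-647P1 150 nM added in HEPES pH 7.3 buffer with MgCl2 and DTT. HTRF via anti-GST Tb cryptate read over 90 min; IC50 from 4-parameter fit at 90 min, blanked to no-SOS reactions.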
Chain of GST-tagged KRAS-G12V (2-169) (P01116 2-169 isoform P01116-2 G12V): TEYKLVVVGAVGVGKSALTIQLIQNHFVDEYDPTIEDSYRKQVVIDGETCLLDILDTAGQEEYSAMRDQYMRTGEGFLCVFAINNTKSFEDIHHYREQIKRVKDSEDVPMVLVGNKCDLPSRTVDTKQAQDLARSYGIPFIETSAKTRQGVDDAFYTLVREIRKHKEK
(In general: Time-resolved FRET reads energy transfer from a long-lived donor to a nearby acceptor.)

The target in assay [2] is GST-tagged KRAS-G12D (2-169) (Homo sapiens, UniProt P01116, G12D). Description: Nucleotide exchange assay (NEA), SOS-mediated, HTRF, KRAS G12D. Format: biochemical. The following applies: Table 4; IC50 extracted at 30 min; 20 nM SOScat; read-out: NEA G12D IC50. The essentials: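 Compound preincubated 1 h at RT with 0.25 nM GST-KRAS-G12D (2-169) and anti-GST Tb donor, then 20 nM SOS1cat (564-1049) and 150 nM GTP-DY-647P1 added; pH 7.3 HEPES buffer with MgCl2 and DTT. HTRF monitored at RT; % inhibition versus DMSO and no-SOS blank, 4-parameter IC50 taken at 30 min.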
Chain of GST-tagged KRAS-G12D (2-169) (P01116 2-169 isoform P01116-2 G12D): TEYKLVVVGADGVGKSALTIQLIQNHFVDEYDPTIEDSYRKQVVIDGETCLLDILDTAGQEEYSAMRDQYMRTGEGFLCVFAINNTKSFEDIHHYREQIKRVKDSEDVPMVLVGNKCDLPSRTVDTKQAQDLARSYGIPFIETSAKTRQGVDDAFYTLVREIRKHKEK

pIC50: −log10 of the molar value.

As usually defined, the pIC50 is the negative decadic logarithm of the IC50, by convention in mol/L.

As for `CC1(O)COCCN(c2nc(OCC3(CN4CCOCC4)CC3)nc(N3CC4(C3)SCc3sc(N)c(C#N)c34)n2)C1` (stereo not shown) [Compound 270, 2-amino-1′-[4-(6-hydroxy-6-methyl-1,4-oxazepan-4-yl)-6-[[1-(morpholinomethyl)cyclopropyl]methoxy]-1,3,5-triazin-2-yl]spiro[6H-thieno[3,4-b]thiophene-4,3′-azetidine]-3-carbonitrile], the pIC50 in assay [1] and in assay [2] was above 8.00 in each case.
`CCN(c1nc(OCC2(COC)CCCC2)nc(N2CC3(C2)SCc2sc(N)c(C#N)c23)n1)[C@H](C)c1cccnc1N` [Compound 222, 2-amino-1′-[4-[[(1R)-1-(2-amino-3-pyridyl)ethyl]-ethyl-amino]-6-[[1-(methoxymethyl)cyclopentyl]methoxy]-1,3,5-triazin-2-yl]spiro[6H-thieno[3,4-b]thiophene-4,3′-azetidine]-3-carbonitrile]: the pIC50 in assay [1] was 6.00 to 7.00; in assay [2] it was 4.70 to 6.00.
Turning to `CCN(c1nc(OC[C@@]23CCCN2C[C@H](F)C3)nc(N2CC3(C2)c2c(sc(N)c2C#N)CN3CC#N)n1)[C@H](C)c1cccnc1N` [Compound 228, 2-amino-1′-[4-[[(1R)-1-(2-amino-3-pyridyl)ethyl]-ethyl-amino]-6-[[(2R,8S)-2-fluoro-1,2,3,5,6,7-hexahydropyrrolizin-8-yl]methoxy]-1,3,5-triazin-2-yl]-5-(cyanomethyl)spiro[6H-thieno[2,3-c]pyrrole-4,3′-azetidine]-3-carbonitrile], the pIC50 is 6.00 to 7.00 in assay [1] and 4.70 to 6.00 in assay [2].
For `CCN(c1nc(OCC2(CN(C)C)CC2(F)F)nc(N2CC3(C2)SCc2sc(N)c(C#N)c23)n1)[C@H](C)c1cccnc1N` (stereo partly drawn) [Compound 198, 2-amino-1′-[4-[[(1R)-1-(2-amino-3-pyridyl)ethyl]-ethyl-amino]-6-[[1-[(dimethylamino)methyl]-2,2-difluoro-cyclopropyl]methoxy]-1,3,5-triazin-2-yl]spiro[6H-thieno[3,4-b]thiophene-4,3′-azetidine]-3-carbonitrile], the pIC50 in assay [1] and in assay [2] was above 8.00 in each case.
Regarding `C[C@H](c1cccnc1N)N(CC(N)=O)c1nc(OC[C@@]23CCCN2C[C@H](F)C3)nc(N2CC3(C2)SCc2sc(N)c(C#N)c23)n1` [Compound 199, 2-[[4-(2-amino-3-cyano-spiro[6H-thieno[3,4-b]thiophene-4,3′-azetidine]-1′-yl)-6-[[(2R,8S)-2-fluoro-1,2,3,5,6,7-hexahydropyrrolizin-8-yl]methoxy]-1,3,5-triazin-2-yl]-[(1R)-1-(2-amino-3-pyridyl)ethyl]amino]acetamide], the pIC50 in assay [1] and in assay [2] was above 8.00 in each case.
Regarding `N#Cc1c(N)sc2c1C1(CC2)CN(c2nc(OC[C@@]34CCCN3C[C@H](F)C4)nc(N3CCC[C@@H](O)C3)n2)C1` [Compound 23, 2-amino-1′-[4-[[(2R,8S)-2-fluoro-1,2,3,5,6,7-hexahydropyrrolizin-8-yl]methoxy]-6-[(3R)-3-hydroxy-1-piperidyl]-1,3,5-triazin-2-yl]spiro[5,6-dihydrocyclopenta[b]thiophene-4,3′-azetidine]-3-carbonitrile], the pIC50 in assay [1] and in assay [2] was 6.00 to 7.00 each time.
For the molecule `CC(c1cccnc1N)N(C)c1nc(OC[C@@]23CCCN2C[C@H](F)C3)nc(N2CC3(CCc4sc(N)c(C#N)c43)C2)n1` (stereo partly drawn) [Compound 83, 2-amino-1′-[4-[1-(2-amino-3-pyridyl)ethyl-methyl-amino]-6-[[(2R,8S)-2-fluoro-1,2,3,5,6,7-hexahydropyrrolizin-8-yl]methoxy]-1,3,5-triazin-2-yl]spiro[5,6-dihydrocyclopenta[b]thiophene-4,3′-azetidine]-3-carbonitrile], the negative-log IC50 (pIC50) in assay [1] and in assay [2] was above 8.00 throughout.
Take `CC(c1ccccc1N)N(C)c1nc(OC[C@@]23CCCN2C[C@H](F)C3)nc(N2CC3(CCc4sc(N)c(C#N)c43)C2)n1` (stereo partly drawn) [Compound 121, 2′-amino-1-(4-((1-(2-aminophenyl)ethyl)(methyl)amino)-6-(((2R,7aS)-2-fluorotetrahydro-1H-pyrrolizin-7a(5H)-yl)methoxy)-1,3,5-triazin-2-yl)-5′,6′-dihydrospiro[azetidine-3,4′-cyclopenta[b]thiophene]-3′-carbonitrile]: the pIC50 in assay [1] and in assay [2] was at most 4.70 throughout.
For the molecule `N#Cc1c(N)sc2c1C1(CN(c3nc(OCC4(CN5CCOCC5)CC4)nc(N4CCNC[C@H]4CO)n3)C1)SC2` [Compound 186, (S)-2′-amino-1-(4-(2-(hydroxymethyl)piperazin-1-yl)-6-((1-(morpholinomethyl)cyclopropyl)methoxy)-1,3,5-triazin-2-yl)-6′H-spiro[azetidine-3,4′-thieno[3,4-b]thiophene]-3′-carbonitrile], the pIC50 in assay [1] was 7.00 to 8.00; in assay [2], above 8.00.
`C[C@H](c1ccc(P(C)(C)=O)cc1)N(C)c1nc(OC[C@@]23CCCN2C[C@H](F)C3)nc(N2CC3(C2)SCc2sc(N)c(C#N)c23)n1` [Compound 229, 2′-amino-1-(4-(((R)-1-(4-(dimethylphosphoryl)phenyl)ethyl)(methyl)amino)-6-(((2R,7aS)-2-fluorotetrahydro-1H-pyrrolizin-7a(5H)-yl)methoxy)-1,3,5-triazin-2-yl)-6′H-spiro[azetidine-3,4′-thieno[3,4-b]thiophene]-3′-carbonitrile]: the pIC50 in assay [1] and in assay [2] was 4.70 to 6.00 throughout.
Regarding `C[C@@]1(O)CCCN(c2nc(OCC3(CN4CCOCC4)CC3)nc(N3CCC4(CCCc5sc(N)c(C#N)c54)C3)n2)C1` (stereo partly drawn) [Compound 64, 2-amino-1′-[4-[(3R)-3-hydroxy-3-methyl-1-piperidyl]-6-[[1-(morpholinomethyl)cyclopropyl]methoxy]-1,3,5-triazin-2-yl]spiro[6,7-dihydro-5H-benzothiophene-4,3′-pyrrolidine]-3-carbonitrile], the pIC50 in assay [1] and in assay [2] was 4.70 to 6.00 in each case.
For the molecule `CN(c1nc(OCC2(CN3CCOCC3)CC2)nc(N2CC3(CCc4sc(N)c(C#N)c43)C2)n1)[C@@H]1COC[C@@H]1O` (racemic) [Compound 94, 2-amino-1′-[4-[[rac-(3R,4R)-4-hydroxytetrahydrofuran-3-yl]-methyl-amino]-6-[[1-(morpholinomethyl)cyclopropyl]methoxy]-1,3,5-triazin-2-yl]spiro[5,6-dihydrocyclopenta[b]thiophene-4,3′-azetidine]-3-carbonitrile], the pIC50 is 6.00 to 7.00 in assay [1] and 4.70 to 6.00 in assay [2].
In the same order, the values of `N#Cc1c(N)sc2c1C1(CC2)CN(c2nc(OC[C@@]34CCCN3C[C@H](F)C4)nc(N3CCSc4ncccc4C3)n2)C1` [Compound 99, 2-amino-1′-[4-(3,5-dihydro-2H-pyrido[3,2-f][1,4]thiazepin-4-yl)-6-[[(2R,8S)-2-fluoro-1,2,3,5,6,7-hexahydropyrrolizin-8-yl]methoxy]-1,3,5-triazin-2-yl]spiro[5,6-dihydrocyclopenta[b]thiophene-4,3′-azetidine]-3-carbonitrile] are 6.00 to 7.00 and 4.70 to 6.00.
On to `CCN(c1nc(OCC2(CN(C)C)CCCN2)nc(N2CC3(C2)SCc2sc(N)c(C#N)c23)n1)[C@H](C)c1cccnc1N` (stereo partly drawn) [Compound 225, 2-amino-1′-[4-[[(1R)-1-(2-amino-3-pyridyl)ethyl]-ethyl-amino]-6-[[2-[(dimethylamino)methyl]pyrrolidin-2-yl]methoxy]-1,3,5-triazin-2-yl]spiro[6H-thieno[3,4-b]thiophene-4,3′-azetidine]-3-carbonitrile], for which the pIC50 in assay [1] is above 8.00; in assay [2], 7.00 to 8.00.
On to `N#CCC12CC1CN(c1nc(OC[C@@]34CCCN3C[C@H](F)C4)nc(N3CC4(CCc5sc(N)c(C#N)c54)C3)n1)C2` (stereo partly drawn) [Compound 42, 2-amino-1′-[4-[1-(cyanomethyl)-3-azabicyclo[3.1.0]hexan-3-yl]-6-[[(2R,8S)-2-fluoro-1,2,3,5,6,7-hexahydropyrrolizin-8-yl]methoxy]-1,3,5-triazin-2-yl]spiro[5,6-dihydrocyclopenta[b]thiophene-4,3′-azetidine]-3-carbonitrile], for which the figures for the pIC50 in assay [1] and in assay [2] were 6.00 to 7.00 and 4.70 to 6.00, respectively.
The matching figures for `CCN(c1nc(OC[C@]23CC[C@H](CN(C)C2)N3)nc(N2CC3(C2)SCc2sc(N)c(C#N)c23)n1)[C@H](C)c1cccnc1N` [Compound 214, 2′-amino-1-(4-(((R)-1-(2-aminopyridin-3-yl)ethyl)(ethyl)amino)-6-(((1S,5R)-3-methyl-3,8-diazabicyclo[3.2.1]octan-1-yl)methoxy)-1,3,5-triazin-2-yl)-6′H-spiro[azetidine-3,4′-thieno[3,4-b]thiophene]-3′-carbonitrile]: above 8.00 and above 8.00.
Take `C[C@@]1(O)CCCN(c2nc(OC[C@]34CCCN3[C@H](COc3cc(C(F)(F)F)ncn3)CC4)nc(N3CC4(C3)SCc3sc(N)c(C#N)c34)n2)C1` (racemic) [Compound 252, 2-amino-1′-[4-[(3R)-3-hydroxy-3-methyl-1-piperidyl]-6-[[(3SR,8RS)-3-[[6-(trifluoromethyl)pyrimidin-4-yl]oxymethyl]-1,2,3,5,6,7-hexahydropyrrolizin-8-yl]methoxy]-1,3,5-triazin-2-yl]spiro[6H-thieno[3,4-b]thiophene-4,3′-azetidine]-3-carbonitrile]: the pIC50 in assay [1] and in assay [2] was above 8.00 each time.

The values above are taken from US12421254B2, “KRAS modulators and uses thereof” (Quanta Therapeutics, Inc., priority 2023, dated 2025).
